Each structure is given as a SMILES string. Where a name gives a salt, the structure may show the parent alone.

A short description of data set [1]: Pharmacokinetic study in mice, cassette intravenous injection and intragastric administration. It is filed as in vivo. As to conditions: mouse, plasma, Balb/c female mice; for Vd / AUC(0-t) / clearance / half-life: IV 0.2 mg/kg; for Vd: read-out: Apparent volume of distribution Vdss; for AUC(0-t): read-out: Area under the plasma concentration-time curve from time zero to 24 hours AUC0-24 h; for clearance: read-out: Clearance rate CL; for half-life: read-out: Half-life T1/2 (converted); for bioavailability: PO 1 mg/kg vs IV 0.2 mg/kg, read-out: Bioavailability F; for AUC / Cmax / Tmax: PO 1 mg/kg; for AUC: read-out: Area under the plasma concentration-time curve AUC; for Cmax: read-out: Peak concentration Cmax; for Tmax: read-out: Time to peak Tmax. As for the experimental part: To evaluate the pharmacokinetic behavior of the compounds of the present disclosure after Cassette intravenous injection and intragastric administration, and to investigate the bioavailability thereof after intragastric administration.
Balb/c female mice aged 7 to 10 weeks were selected, and administered intravenously and orally with the doses of 0.2 mg/kg and 1 mg/kg, respectively. The mice were fasted for at least 12 hours before administration, and feeding was resumed after 4 hours of administration. The mice were free to drink water during the entire experiment. In this experiment, Cassette administration was used, and with regard to the intravenous injection group: an appropriate amount of each compound was weighed, and mixed with 5% DMSO/10% Solutol/85% Water for vortexing to prepare a 0.1 mg/mL of clear solution; the clear solution was filtered with a microporous membrane for later use; and with regard to the intragastric administration group: an appropriate amount of each compound was weighted, and mixed with 90% (25% HP-β-CD/10% Cremophor EL) with pH being adjusted to 4 to 5 to prepare a homogeneous suspension for later use. On the day of the experiment, the animals in the intravenous injection group were administrated with the corresponding compounds via tail vein single injection, with the administration volume of 2 mL/kg; and the animals in the oral group were administrated with the corresponding compounds by single intragastric administration, with the administration volume of 10 mL/kg. The body weight of the animals was weighed before administration, and the administration volume was calculated based on the body weight. The sample collection time was: 0.083 (injection group) h, 0.25 h, 0.5 h, 1 h, 2 h, 4 h, 8 h, and 24 h. Approximately 30 uL of whole blood was collected from the saphenous vein at each time point to prepare plasma for high performance liquid chromatography-tandem mass spectrometry (LC-MS/MS) to determine the concentration. All animals were euthanized by CO2 anesthesia after PK samples at the last time point were collected. The non-compartmental model of WinNonlin™ Version 6.3 (Pharsight, Mountain View, CA) pharmacokinetic software was used to process the plasma concentration, and the pharmacokinetic parameters were calculated using the linear logarithmic trapezoidal method.

In the next data set the target is T1, human FGFR1 (Homo sapiens, UniProt P11362).
T1 construct: purchased Invitrogen PV3146
Nature of the data set: 33P isotope-labeled kinase activity test (Reaction Biology Corp), FGFR1. In kind it is biochemical. As to conditions: 33P-ATP 5 μM, kinase 1.5 nM, 120 min room temperature. On the procedure:
(§1) The IC50 value was determined using ^33P isotope-labeled kinase activity test (Reaction Biology Corp) to evaluate the inhibitory ability of the compounds to be tested on human FGFR1, FGFR2 and VEGFR2.
(§2) Buffer conditions: 20 mM Hepes (pH 7.5), 10 mM MgCl2, 1 mM EGTA, 0.02% Brij35, 0.02 mg/mL BSA, 0.1 mM Na3VO4, 2 mM DTT, 1% DMSO.
(§3) Test steps: At room temperature, the compounds to be tested were dissolved in DMSO to prepare a 10 mM solution for use. The substrate was dissolved in the newly-prepared buffer, and the kinase to be tested was added thereto and mixed well. The DMSO solution in which the compounds to be tested were dissolved was added to the above-mentioned homogeneous reaction solution using acoustic technology (Echo 550). […] After incubating for 15 minutes, to the reaction solution was added ^33P-ATP (activity: 0.01 μCi/μL, with corresponding concentration listed in Table 10) to start the reaction. […] The kinase activity data was expressed by comparing the kinase activity of the groups containing the compounds to be tested with that of the blank group (containing only DMSO). The IC50 value was obtained by curve fitting using Prism4 software (GraphPad), and the experimental results were shown in Table 11.

Data set [2] concerns the target T2, hERG potassium ion channel (Homo sapiens, UniProt Q12809).
T2 construct: expressed in transfected cells; host or cells: CHO-hERG cells
Nature of the data set: Inhibition test of hERG potassium ion channel, full-automatic patch clamp (Qpatch), CHO-hERG cells. As to conditions: highest test concentration 40 μM. In kind it is cell-based. As for the experimental part:
To detect the effect of the compounds of the present disclosure to be tested on the hERG potassium ion channel using a full-automatic patch clamp method.
1.1 CHO-hERG cells were cultured in a 175 cm^2 culture bottle, and once the cells grow to a density of 60% to 80%, the culture solution was removed; and the cells were washed with 7 mL of PBS (Phosphate Buffered Saline), and then digested by adding 3 mL of Detachin.
1.2 After the digestion was complete, 7 mL of culture solution was added for neutralization, and the mixture was centrifuged; and the supernatant was pipetted out, and then 5 mL of culture solution was added for resuspension to ensure that the cells reached a density of 2 to 5×10^6/mL.
The single-cell high-impedance sealing and the whole-cell mode formation process were all automatically completed by the Qpatch instrument. After the whole-cell recording mode was obtained, the cells were clamped at −80 millivolt; before a 5 second +40 millivolt depolarization stimulus was given, a 50 millisecond −50 millivolt pre-voltage was given, then repolarized to −50 millivolt for 5 seconds, and then returned to −80 millivolt. Such a voltage stimulus was applied every 15 seconds and recorded for 2 minutes, and then extracellular fluid was given and recorded for 5 minutes, followed by drug administration. […]
The experimental data was analyzed by GraphPad Prism 5.0 software. […]
Background: The hERG channel carries a current that helps repolarise heart muscle cells.

Another data set has as its target T3, human FGFR2 (Homo sapiens, UniProt P21802).
T3 construct: purchased Invitrogen PV3368
Nature of the data set: 33P isotope-labeled kinase activity test (Reaction Biology Corp), FGFR2. In kind it is biochemical. Conditions: 33P-ATP 5 μM, kinase 0.45 nM, 120 min room temperature. As for the experimental part: as §1, §2, §3

Data set [3] has as its system human gastric cancer SNU-16 subcutaneous xenograft tumor. Nature of the data set: Anti-tumor activity in mouse subcutaneous xenograft tumor model of human gastric cancer SNU-16. Conditions: day 25, SNU-16 xenograft. In kind it is in vivo, nude mice. For orientation: In xenograft studies the graft and the host belong to different species.
Description: To determine the anti-tumor effect of the compounds of the present disclosure in a mouse subcutaneous xenograft tumor model of human gastric cancer SNU-16
preparation of tumor tissues: SNU-16 cells were routinely cultured in an RPMI-1640 culture medium containing 10% fetal bovine serum under the conditions of 5% CO2, 37° C. and saturated humidity.
Each animal was inoculated with 200 μL (8×10^6 cells/mouse) to establish a SNU-16 xenograft model. The animal status was observed regularly, and the tumor diameter was measured with an electronic vernier caliper. The data was input into an Excel spreadsheet to calculate tumor volume and monitor tumor growth.
3) The tumor diameter was measured twice a week to calculate the tumor volume, and the animal body weight was weighted and recorded.
The calculation formula of tumor volume (TV) was: TV (mm^3)=1×w^2/2, where 1 represented the long diameter of the tumor (mm); w represented the short diameter of the tumor (mm).
The anti-tumor efficacy of the compounds was evaluated by TGI (%) or relative tumor proliferation rate T/C (%). […] The relative tumor volume (RTV) was calculated according to the results of the tumor measurement. The calculation formula was RTV=Vt/V0, where V0 was the tumor volume measured at the beginning of the grouping and administration (i.e., D0), and Vt was the tumor volume corresponding to a certain measurement in the mouse. […]
The test system of data set [4] is human gastric cancer SNU-16 cells expressing FGFR2. The experiment in a line: Cell activity (proliferation) test of gastric cancer cell line SNU-16, CellTiter-Glo. Conditions: inhibition of proliferation. In kind it is cell-based. As for the experimental part:
To test the inhibitory effect of the compounds on the proliferation of human gastric cancer SNU-16 cells expressing FGFR2.
The compounds used in the test were subjected to 3-fold concentration dilution, the concentration starting from 10 μM and subjected to […], resulting in 9 concentrations: 10 μM, 2.50 μM, 0.62 μM, 0.156 μM, 39.1 nM, 9.8 nM, 2.4 nM, 0.61 nM, and 0.15 nM.
(1) Promega CellTiter-Glo luminescent cell viability assay kit (Promega-G7573).
(2) 2104 EnVision multi-tag reader, PerkinElmer.
The inhibition rate of different doses of the compounds would be calculated in the Excel file, and the IC50 data was obtained by parametric curve fitting (GraphPad Software).

In a further data set the target is T4, human VEGFR2 (Homo sapiens, UniProt P35968).
T4 construct: purchased Invitrogen PR5992C
Nature of the data set: 33P isotope-labeled kinase activity test (Reaction Biology Corp), VEGFR2. It is filed as biochemical. Conditions: 33P-ATP 20 μM, kinase 1 nM, 120 min room temperature. On the procedure: as §1, §2, §3

T3 sequence (P21802 22-821): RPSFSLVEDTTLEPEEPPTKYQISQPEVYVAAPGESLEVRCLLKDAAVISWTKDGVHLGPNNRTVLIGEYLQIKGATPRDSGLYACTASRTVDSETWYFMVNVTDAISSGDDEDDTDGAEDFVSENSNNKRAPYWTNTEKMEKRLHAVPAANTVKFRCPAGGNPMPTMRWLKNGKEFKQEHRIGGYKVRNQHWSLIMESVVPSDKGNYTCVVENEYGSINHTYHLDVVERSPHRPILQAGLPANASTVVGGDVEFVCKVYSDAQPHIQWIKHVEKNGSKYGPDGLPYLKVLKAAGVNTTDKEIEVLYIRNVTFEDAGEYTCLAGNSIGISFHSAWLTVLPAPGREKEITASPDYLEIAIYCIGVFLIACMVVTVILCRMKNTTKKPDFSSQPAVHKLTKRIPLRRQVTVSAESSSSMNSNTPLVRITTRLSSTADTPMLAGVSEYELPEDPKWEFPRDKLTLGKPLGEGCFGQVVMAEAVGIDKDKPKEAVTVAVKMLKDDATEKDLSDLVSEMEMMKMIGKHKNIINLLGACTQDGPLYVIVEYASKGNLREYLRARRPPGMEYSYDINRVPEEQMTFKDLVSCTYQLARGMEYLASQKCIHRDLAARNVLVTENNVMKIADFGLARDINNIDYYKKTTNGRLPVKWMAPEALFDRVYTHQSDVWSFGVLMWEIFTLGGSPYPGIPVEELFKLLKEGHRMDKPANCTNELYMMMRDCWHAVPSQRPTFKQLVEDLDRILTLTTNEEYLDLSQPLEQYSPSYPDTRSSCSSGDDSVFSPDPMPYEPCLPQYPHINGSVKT
T1 sequence (P11362 22-822): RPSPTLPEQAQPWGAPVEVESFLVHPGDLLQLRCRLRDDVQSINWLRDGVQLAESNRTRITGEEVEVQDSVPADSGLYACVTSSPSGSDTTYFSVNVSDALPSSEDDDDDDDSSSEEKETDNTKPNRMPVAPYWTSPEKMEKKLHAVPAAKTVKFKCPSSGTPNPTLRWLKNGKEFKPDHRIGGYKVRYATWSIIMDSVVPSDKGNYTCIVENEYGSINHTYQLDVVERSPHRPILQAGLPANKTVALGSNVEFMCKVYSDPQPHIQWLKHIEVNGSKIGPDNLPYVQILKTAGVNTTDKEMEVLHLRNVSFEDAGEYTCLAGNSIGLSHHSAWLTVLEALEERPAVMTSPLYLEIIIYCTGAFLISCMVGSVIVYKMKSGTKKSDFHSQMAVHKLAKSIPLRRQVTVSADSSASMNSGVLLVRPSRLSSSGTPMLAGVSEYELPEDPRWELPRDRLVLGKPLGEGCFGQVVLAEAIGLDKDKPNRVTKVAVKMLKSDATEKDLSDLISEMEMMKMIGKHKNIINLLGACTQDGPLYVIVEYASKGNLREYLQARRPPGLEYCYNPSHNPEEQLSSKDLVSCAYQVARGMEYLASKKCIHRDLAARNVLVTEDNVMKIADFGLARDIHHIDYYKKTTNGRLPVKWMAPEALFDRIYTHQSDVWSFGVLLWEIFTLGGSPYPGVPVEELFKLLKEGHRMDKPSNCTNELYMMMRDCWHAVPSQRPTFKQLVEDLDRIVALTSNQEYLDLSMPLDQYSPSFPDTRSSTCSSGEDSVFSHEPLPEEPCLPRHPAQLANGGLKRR
T2 sequence (Q12809 whole entry): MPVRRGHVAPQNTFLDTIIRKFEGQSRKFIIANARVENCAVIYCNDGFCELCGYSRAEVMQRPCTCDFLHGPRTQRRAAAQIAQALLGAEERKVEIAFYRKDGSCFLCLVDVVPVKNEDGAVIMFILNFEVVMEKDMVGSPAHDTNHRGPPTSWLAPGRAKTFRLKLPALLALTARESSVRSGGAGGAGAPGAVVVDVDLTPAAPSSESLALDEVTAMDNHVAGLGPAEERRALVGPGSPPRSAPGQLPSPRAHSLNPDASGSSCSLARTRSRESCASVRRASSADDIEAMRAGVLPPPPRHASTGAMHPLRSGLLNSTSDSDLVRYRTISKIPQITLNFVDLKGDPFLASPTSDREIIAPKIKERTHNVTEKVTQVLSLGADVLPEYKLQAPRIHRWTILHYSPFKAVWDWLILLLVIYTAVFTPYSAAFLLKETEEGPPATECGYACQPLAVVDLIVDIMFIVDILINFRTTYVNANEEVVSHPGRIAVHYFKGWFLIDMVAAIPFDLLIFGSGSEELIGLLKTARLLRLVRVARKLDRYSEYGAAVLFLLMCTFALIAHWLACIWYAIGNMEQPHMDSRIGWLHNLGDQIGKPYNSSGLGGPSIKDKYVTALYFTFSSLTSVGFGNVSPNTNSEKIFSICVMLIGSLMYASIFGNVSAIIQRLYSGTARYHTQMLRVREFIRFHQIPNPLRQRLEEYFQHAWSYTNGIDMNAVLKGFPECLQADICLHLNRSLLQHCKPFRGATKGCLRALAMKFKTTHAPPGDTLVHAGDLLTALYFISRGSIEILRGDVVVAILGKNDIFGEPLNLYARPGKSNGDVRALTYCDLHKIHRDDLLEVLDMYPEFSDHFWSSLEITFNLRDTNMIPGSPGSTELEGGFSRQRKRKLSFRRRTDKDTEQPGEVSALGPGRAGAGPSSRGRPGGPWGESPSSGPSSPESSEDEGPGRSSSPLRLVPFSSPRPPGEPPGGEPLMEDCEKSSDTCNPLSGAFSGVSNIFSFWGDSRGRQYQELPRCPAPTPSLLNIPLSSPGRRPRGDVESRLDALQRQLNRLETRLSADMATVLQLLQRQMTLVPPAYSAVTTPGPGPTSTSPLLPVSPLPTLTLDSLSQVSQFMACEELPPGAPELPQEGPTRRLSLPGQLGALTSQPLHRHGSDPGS
T4 sequence (P35968 20-1356): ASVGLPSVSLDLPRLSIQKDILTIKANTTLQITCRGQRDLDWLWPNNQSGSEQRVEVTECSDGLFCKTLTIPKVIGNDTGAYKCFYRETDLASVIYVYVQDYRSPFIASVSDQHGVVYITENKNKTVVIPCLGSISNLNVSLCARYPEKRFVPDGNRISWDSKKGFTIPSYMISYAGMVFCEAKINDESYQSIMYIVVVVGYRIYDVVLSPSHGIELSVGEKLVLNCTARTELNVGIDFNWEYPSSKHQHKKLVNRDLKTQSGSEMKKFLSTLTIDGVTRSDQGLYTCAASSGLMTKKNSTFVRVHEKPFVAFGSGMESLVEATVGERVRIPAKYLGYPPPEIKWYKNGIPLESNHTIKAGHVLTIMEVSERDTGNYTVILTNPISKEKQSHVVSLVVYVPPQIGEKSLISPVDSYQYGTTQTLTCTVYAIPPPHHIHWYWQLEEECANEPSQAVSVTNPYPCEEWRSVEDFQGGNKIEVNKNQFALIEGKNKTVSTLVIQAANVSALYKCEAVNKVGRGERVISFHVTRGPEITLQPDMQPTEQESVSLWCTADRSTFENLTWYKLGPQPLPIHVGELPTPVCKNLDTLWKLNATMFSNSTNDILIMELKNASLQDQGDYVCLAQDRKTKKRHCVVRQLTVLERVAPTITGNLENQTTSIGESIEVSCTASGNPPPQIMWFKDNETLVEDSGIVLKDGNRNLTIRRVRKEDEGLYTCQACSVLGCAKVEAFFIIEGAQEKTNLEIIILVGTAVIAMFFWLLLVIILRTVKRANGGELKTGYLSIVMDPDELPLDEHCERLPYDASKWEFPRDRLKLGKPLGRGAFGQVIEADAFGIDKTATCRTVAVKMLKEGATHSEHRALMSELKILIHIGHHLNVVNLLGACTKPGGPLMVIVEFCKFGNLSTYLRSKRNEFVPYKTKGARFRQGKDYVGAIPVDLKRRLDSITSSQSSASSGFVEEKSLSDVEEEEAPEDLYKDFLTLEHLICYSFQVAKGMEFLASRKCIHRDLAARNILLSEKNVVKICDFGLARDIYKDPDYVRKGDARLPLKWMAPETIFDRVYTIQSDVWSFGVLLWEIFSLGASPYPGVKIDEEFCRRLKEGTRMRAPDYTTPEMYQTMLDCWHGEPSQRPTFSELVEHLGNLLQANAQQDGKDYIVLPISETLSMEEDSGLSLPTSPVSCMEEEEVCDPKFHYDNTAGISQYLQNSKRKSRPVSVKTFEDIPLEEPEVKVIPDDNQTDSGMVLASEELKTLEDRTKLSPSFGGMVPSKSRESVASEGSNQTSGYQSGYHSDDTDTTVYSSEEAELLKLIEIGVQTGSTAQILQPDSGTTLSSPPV

For the molecule `Cn1cc(-c2ccc3c(-c4cc(NS(=O)(=O)C5CC5)cc(-c5ccc(F)cc5F)c4)cnn3c2)cn1` [Compound 1], in data set [1], the Vd is 1.25 L/kg, the AUC(0-t) worked out at 0.751 µM·h, the clearance turned out to be 8.53 mL/min/kg and the half-life is 1.52 h. In addition, in data set [1], the bioavailability was found to be 74%, the AUC turned out to be 2.48 µM·h, the Cmax amounted to 540 nM and the Tmax came out at 2 h. The molecule further showed an IC50 against human FGFR1 of 6.29 nM.
On to `CCS(=O)(=O)Nc1cc(-c2ccc(F)cc2F)cc(-c2cnn3cc(-c4cnn(C)c4)ccc23)c1` [Compound 2], for which the IC50 in data set [2] is over 40000 nM. Further, in data set [1], the Vd worked out at 1.2 L/kg, the AUC(0-t) came out at 1.14 µM·h, the clearance is 6.53 mL/min/kg and the half-life is 2.12 h. Moreover, in data set [1], the bioavailability turned out to be 43.8%, the AUC is 1.98 µM·h, the Cmax was found to be 388 nM and the Tmax was 2 h. Moreover, at human FGFR2, the IC50 amounted to 2.66 nM. Also, in data set [3] (PO 10 mpk/QD), the “TGI (%) (tumor growth inhibition rate) on day 25” value came out at 74%. On human FGFR1, the IC50 stood at 2.86 nM. This molecule also came in with an IC50 in data set [4] of 16.3 nM.
`CC(=O)Nc1cc(-c2ccc(F)cc2F)cc(-c2cnn3cc(-c4cnn(C)c4)ccc23)c1` [Compound 3]: on human FGFR1, the concentration for half-maximal inhibition (IC50) stood at 2.37 nM.
As to `Cn1cc(-c2ccc3c(-c4cc(NS(C)(=O)=O)cc(-c5ccc(F)cc5F)c4)cnn3c2)cn1` [Compound 4], in data set [1], the Vd was 1.4 L/kg, the AUC(0-t) is 0.548 µM·h, the clearance came to 12.6 mL/min/kg and the half-life is 1.17 h. Further, in data set [1], the bioavailability is 73.2%, the AUC amounted to 1.9 µM·h, the Cmax was 463 nM and the Tmax worked out at 2 h. Moreover, on human FGFR2, half-maximal inhibition (IC50) was put at 2.5 nM. For the same molecule, the “TGI (%) (tumor growth inhibition rate) on day 25” value in data set [3] (PO 20/30/20 mpk/QD (30 mg/kg/day from day 9, 20 mg/kg/day from day 12)) is 70%. For the same molecule, inhibition at human FGFR1 was half-maximal at 1.63 nM (IC50). Moreover, 14.5 nM corresponded to half-maximal inhibition in data set [4] (IC50).
As to `Cn1cc(-c2cnc3c(-c4cc(NS(=O)(=O)C5CC5)cc(-c5ccc(F)cc5F)c4)cnn3c2)cn1` [Compound 5], the IC50 in data set [2] was over 40000 nM; on human FGFR1, 9.34 nM.
Molecule `CC(C)Nc1cc(-c2ccc(F)cc2F)cc(-c2cnn3cc(-c4cnn(C)c4)ccc23)c1` [Compound 6] had an IC50 at human FGFR1 of 17 nM. This lies in the double-digit nanomolar range.
Regarding `Cn1cnc(-c2ccc3c(-c4cc(NS(C)(=O)=O)cc(-c5ccc(F)cc5F)c4)cnn3c2)n1` [Compound 7], at human FGFR1, 135 nM corresponded to half-maximal inhibition (IC50).
On to `Cn1cc(-c2ccc3c(-c4cc(NS(=O)(=O)C5CC5)nc(-c5ccc(F)cc5F)c4)cnn3c2)cn1` [Compound 14], for which the IC50 on human FGFR1 worked out at 10.3 nM. This IC50 is about 13-fold lower than that of the molecule before.
With `Cn1cc(-c2ccc3c(-c4cc(NS(=O)(=O)C5CC5)cc(-c5ncc(F)cc5F)c4)cnn3c2)cn1` [Trifluoroacetate salt of compound 11], the IC50 at human FGFR2 turned out to be 0.76 nM; on human VEGFR2, 0.6 nM; in data set [4] it was 10.5 nM.
Regarding `Cn1cc(-c2ccc3c(c2)ncn3-c2cc(NS(=O)(=O)C3CC3)cc(-c3ccc(F)cc3F)c2)cn1` [reference compound], the IC50 against human FGFR2 worked out at 29.9 nM; against human FGFR1, 22.2 nM; on human VEGFR2, 27.2 nM.

In general, clearance refers to a measure of how efficiently the substance is removed, as volume per time. In general, bioavailability refers to the share of a dose that reaches the circulation, judged against a reference dose that is usually intravenous. A word on the Tmax: it is the time at which the peak concentration occurs. As usually defined, the IC50 is the midpoint of a concentration-inhibition curve. Low readings indicate higher potency, high ones lower potency.

(Values after patent US12325703B2, “Fused ring compound as FGFR and VEGFR dual inhibitor” (CGENETECH (SUZHOU, CHINA) CO., LTD., priority 2019, dated 2025).)
